Experimental data from the supplement of paper PMC13380429.

How the values were obtained:
Conditions in all cases: 72 h
HepG2 [1] = experiment: cell viability relative to DMSO; higher = less toxic
Vero E6 [2] = experiment: as above
Caco-2 [3] = experiment: as above
Calu-3 [4] = experiment: as above
U2OS [5] = experiment: as above
HepG2 [6] = experiment: relative viability EC50 (midpoint between 100% and the lowest measured viability); higher = less toxic
Vero E6 [7] = experiment: as above
Caco-2 [8] = experiment: as above
Calu-3 [9] = experiment: as above
U2OS [10] = experiment: as above
HepG2 [11] = experiment: drug sensitivity score (DSS) for viability; higher = more toxic; extreme values may be limits of the assay
Vero E6 [12] = experiment: as above
Caco-2 [13] = experiment: as above
Calu-3 [14] = experiment: as above
U2OS [15] = experiment: as above

SMILES | cell viability (HepG2 [1]; 1 nM) | cell viability (HepG2 [1]; 10 nM) | cell viability (HepG2 [1]; 100 nM) | cell viability (HepG2 [1]; 1000 nM) | cell viability (HepG2 [1]; 10000 nM) | cell viability (Vero E6 [2]; 1 nM) | cell viability (Vero E6 [2]; 10 nM) | cell viability (Vero E6 [2]; 100 nM) | cell viability (Vero E6 [2]; 1000 nM) | cell viability (Vero E6 [2]; 10000 nM) | cell viability (Caco-2 [3]; 1 nM) | cell viability (Caco-2 [3]; 10 nM) | cell viability (Caco-2 [3]; 100 nM) | cell viability (Caco-2 [3]; 1000 nM) | cell viability (Caco-2 [3]; 10000 nM) | cell viability (Calu-3 [4]; 1 nM) | cell viability (Calu-3 [4]; 10 nM) | cell viability (Calu-3 [4]; 100 nM) | cell viability (Calu-3 [4]; 1000 nM) | cell viability (Calu-3 [4]; 10000 nM) | cell viability (U2OS [5]; 1 nM) | cell viability (U2OS [5]; 10 nM) | cell viability (U2OS [5]; 100 nM) | cell viability (U2OS [5]; 1000 nM) | cell viability (U2OS [5]; 10000 nM) | relative viability EC50 (HepG2 [6]) | relative viability EC50 (Vero E6 [7]) | relative viability EC50 (Caco-2 [8]) | relative viability EC50 (Calu-3 [9]) | relative viability EC50 (U2OS [10]) | drug sensitivity score (HepG2 [11]) | drug sensitivity score (Vero E6 [12]) | drug sensitivity score (Caco-2 [13]) | drug sensitivity score (Calu-3 [14]) | drug sensitivity score (U2OS [15])
CC(=O)OCC1=C(C(=O)O)N2C(=O)[C@@H](NC(=O)CS/C(=N/C(C)C)NC(C)C)[C@H]2SC1 [cefathiamidine] | 94.6% | 89.3% | 96.8% | 98.1% | 105% | 99.7% | 101% | 95.1% | 102% | 109% | 97.9% | 96.5% | 113% | 107% | 96.6% | 97.3% | 107% | 107% | 108% | 102% | 94.3% | 94.3% | 97.9% | 98.8% | 102% | > 10 µM | > 10 µM | > 10 µM | > 10 µM | > 10 µM | 0 | 0 | 0 | 0 | 0
Oc1c(Cl)cc(Cl)c2cccnc12 [chloroxine] | 75.3% | 89.9% | 92.2% | 91.6% | 76% | 100% | 105% | 96.9% | 93.5% | 96.7% | 98.9% | 102% | 96.6% | 91.4% | 85.3% | 93.9% | 103% | 91.9% | 100% | 84.2% | 102% | 103% | 96.7% | 101% | 94.4% | > 10 µM | > 10 µM | > 10 µM | > 10 µM | > 10 µM | 0 | 0 | 0.5 | 0.3 | 0
COc1ccc(/C=C\c2cc(OC)c(OC)c(OC)c2)cc1O [combretastatin-A-4] | 99.6% | 99.8% | 45.2% | 37.9% | 37.3% | 97.1% | 63.9% | 22.5% | 22.8% | 25.1% | 93.5% | 76.9% | 52.8% | 40.3% | 43.9% | 100% | 107% | 85.8% | 47.2% | 34.5% | 94.5% | 47.4% | 22.3% | 23.6% | 22.2% | 0.0466 µM | 0.0107 µM | 0.0175 µM | 0.303 µM | 0.006 µM | 18.3 | 28.4 | 19.1 | 11.5 | 30.8
Cc1cccc(Cc2c[nH]cn2)c1C [detomidine] | 99.4% | 101% | 104% | 113% | 113% | 91% | 101% | 90.5% | 102% | 106% | 94.2% | 94% | 97.5% | 86.7% | 96.1% | 99.7% | 93% | 102% | 103% | 102% | 101% | 98.2% | 103% | 96.5% | 101% | > 10 µM | > 10 µM | > 10 µM | > 10 µM | > 10 µM | 0 | 0 | 0 | 0 | 0
N#CC(c1ccc(Cl)cc1)c1c(Cl)cc(-n2ncc(=O)[nH]c2=O)cc1Cl (stereo not given) [diclazuril] | 101% | 102% | 121% | 110% | 91% | 99.4% | 100% | 92.2% | 95.8% | 109% | 100% | 93.7% | 107% | 86.3% | 110% | 98% | 84.7% | 94.2% | 92.9% | 107% | 98.6% | 98.5% | 95.7% | 94.8% | 100% | > 10 µM | > 10 µM | > 10 µM | > 10 µM | > 10 µM | 0 | 0 | 0 | 0 | 0
C1CCC(NC2CCCCC2)CC1 [dicyclohexylamine] | 99% | 104% | 97.5% | 111% | 104% | 99.1% | 96.3% | 97.3% | 100% | 97.5% | 98.7% | 104% | 94.6% | 106% | 94.1% | 96.6% | 99% | 87.8% | 97.8% | 98% | 99.2% | 99.5% | 99.4% | 104% | 97.7% | > 10 µM | > 10 µM | > 10 µM | > 10 µM | > 10 µM | 0 | 0 | 0 | 0 | 0
